Measured values reported in ChEMBL document CHEMBL5370645, “Discovery, Characterization, and Bioactivity of the Achromonodins: Lasso Peptides Encoded by Achromobacter” (J Nat Prod, 2023).
Calls of active or inactive are those of the source. The calls are words filed in the database; no cut-off is given here. Positions of bridges follow the written chain, without caps; N, C: chain ends. Residues, ends and D or L forms follow the SMILES beside them.

Test system: Escherichia coli
Experiment: Inhibition of Escherichia coli RNA polymerase assessed as reduction in transcriptional capacity by abortive transcription initiation assay

inhibition: Active
SMILES: CC[C@H](C)[C@@H]1NC(=O)[C@H](CO)NC(=O)CNC(=O)[C@H](CC(=O)O)NC(=O)CNC(=O)CNC(=O)CC[C@@H](C(=O)N[C@@H](Cc2ccc(O)cc2)C(=O)N[C@@H](Cc2ccccc2)C(=O)N[C@@H](CC(N)=O)C(=O)N[C@@H](CCCNC(=N)N)C(=O)N2CCC[C@H]2C(=O)N[C@@H](CCSC)C(=O)N[C@@H](Cc2c[nH]cn2)C(=O)N[C@H](C(=O)N[C@@H](Cc2c[nH]cn2)C(=O)N[C@@H](CC(=O)O)C(=O)N[C@@H](Cc2c[nH]c3ccccc23)C(=O)N[C@@H](CCC(N)=O)C(=O)N[C@H](C(=O)N[C@@H](CCSC)C(=O)N[C@@H](CC(=O)O)C(=O)N[C@@H](CO)C(=O)NCC(=O)N[C@@H](Cc2ccc(O)cc2)C(=O)N[C@@H](Cc2ccc(O)cc2)C(=O)NCC(=O)O)[C@@H](C)CC)[C@@H](C)CC)NC(=O)[C@H](C)NC1=O (GGDGSIAEYFNRPMHIHDWQIMDSGYYG-OH; lactam N-8)
